According to patent publication US20140099256A1, “RADIOACTIVE LUMINESCENT NANOPARTICLE COMPOSITIONS” (The Board of Regents of the University of Texas System, priority 2012, published 2014):

Tests used:
Type in all cases: in vivo, BALB/c mice
[1] = Renal clearance kinetics (copper content in urine) of GS-CuNPs and Cu(II)-GSSG complex
Experimental: (§1) FIGS. 2A to 2E show (A) Ex vivo fluorescent images of urine of control mice or mice injected with luminescent GS-CuNPs (λex=510 nm, λem=790 nm); (B) Copper contents (n=6) in the urine at different times post injection (p.i.); (C) Biodistribution of Cu(II)-GSSG complex and luminescent GS-CuNPs in BALB/c mice (n=6) 24 h after the tail-vein injection; (D) Liver-tourine ratios of Cu(II)-GSSG complex and GS-CuNPs at 24 h p.i; (E) Pharmacokinetics (n=3) of the renal clearable Cu(II)-GSSG complex and luminescent GS-CuNPs in 24 h p.i.
Although “being small” is generally seen as an efficient approach to boost the clearance of biomaterials from the body, the avidity between materials and serum proteins also plays an important role in the excretion. Seemingly a dilemma, it is hard to know which factors in the renal excretion of GS-CuNPs and Cu(II)-GSSG complex are reliably important. As such, the renal clearance kinetics and biodistribution of GS-CuNPs and Cu(II)-GSSG complex were evaluated in BALB/c mice (FIGS. 2A and 2B). For GS-CuNPs, 78.5±3.5% of injected copper was excreted from the body into the urine after 24 h p.i., and over 60% of copper was actually eliminated from the body in the first 2 h p.i (FIG. 2B).

[2] = Biodistribution of Cu(II)-GSSG complex and GS-CuNPs after tail-vein injection; conditions: 24 h after tail-vein injection, background copper deducted
Experimental: as §1
(§2) The detailed biodistribution studies of mice injected with GS-CuNPs and Cu(II)-GSSG complexes were consistent with their renal clearance profiles (FIG. 2C). In view of the background of copper, the average copper contents in the various organs/tissues and urine from three BALB/c mice have been deducted. […] However, compared to free Cu ions that often bind to caeruloplasmin and hephaestin and mainly accumulate in the liver, both GS-CuNPs and Cu(II)-GSSG complexes had much lower accumulation in RES, which was because GSH minimized the serum protein absorption and render them the efficient renal clearance. […] As a result, liver-to-urine ratio (−0.16) of CuNPs is more than 4 times lower than that of Cu(II)-GSSG complex (FIG. 2D).

[3] = Blood pharmacokinetics of Cu(II)-GSSG complex and GS-CuNPs; conditions: 24 h p.i.
Experimental: as §1, §2

Cu(II)-GSSG complex
additional increase in urine excretion of copper metal ([1]; after 2 h): −18% | copper found in the urine ([1]; at 2 h p.i.): 22 % ID | copper found in the liver [2]: 29.6±8.1 % ID | copper found in the spleen [2]: ~0.1 % ID | distribution half-life t½α [3]: 13.7 ± 1.0 min | terminal elimination half-life (t½β) [3]: 4.93 ± 0.94 h
